In article PMC5216742, “Discovery and characterization of a novel potent type II native and mutant BCR-ABL inhibitor (CHMFL-074) for Chronic Myeloid Leukemia (CML)” (Oncotarget, 2016):

Tests used:
PDGFRα = PDGFRα (Homo sapiens, UniProt P16234); assay: Promega ADP-Glo biochemical kinase assay; details: 100 μM ATP, read-out: IC50 against PDGFRα
Experimental: (§1) The ADP-Glo™ kinase assay (Promega, USA) was used to screen CHMFL-074 for its PDGFRα/PDGFRβ inhibition effects. […] The reaction in each tube was started immediately by adding ATP and kept going for an hour under 37°C. After the tube cooled for 5 minutes at room temperature, 5 μL solvent reactions were carried out in a 384-well plate. Then 5 μL of ADP-Glo™ reagent was added into each well to stop the reaction and consume the remaining […] within 40 minutes. […] Luminescence signal was measured with an automated plate reader (Envision, USA) and the dose-response curve was fitted using Prism 5.0 (GraphPad Software Inc., San Diego, CA).

PDGFRβ = PDGFRβ (Homo sapiens, UniProt P09619); assay: Promega ADP-Glo biochemical kinase assay; details: 100 μM ATP, read-out: IC50 against PDGFRβ
Experimental: as §1

[1] = target: T1, ABL1(M351T)-phosphorylated (Homo sapiens, UniProt P00519, M351T); assay: KinomeScan profiling; assay type: binding; details: 1 µM CHMFL-074; read-out: % Control
T1 construct: purchased DiscoveRx (KinomeScan service)

DDR1 = target: T2, DDR1 (Homo sapiens, UniProt Q08345); assay: KinomeScan profiling; assay type: binding; details: 1 µM CHMFL-074; read-out: % Control
T2 construct: purchased DiscoveRx (KinomeScan service)

[2] = target: T3, ABL1(Q252H)-phosphorylated (Homo sapiens, UniProt P00519, Q252H); assay: KinomeScan profiling; assay type: binding; details: 1 µM CHMFL-074; read-out: % Control
T3 construct: purchased DiscoveRx (KinomeScan service)

ABL2 = target: T4, ABL2 (Homo sapiens, UniProt P42684); assay: KinomeScan profiling; assay type: binding; details: 1 µM CHMFL-074; read-out: % Control
T4 construct: purchased DiscoveRx (KinomeScan service)

ABL1 kinase = target: T5, ABL1 kinase (Homo sapiens, UniProt P00519); assay: Invitrogen Z'LYTE biochemical kinase assay
T5 construct: A construct encoding c-ABL residues 229–500 with a His tag; made in house; host or cells: SF9 insect cells (baculovirus, pFASTHTA)
Experimental: A construct encoding c-ABL residues 229–500 with a His tag was cloned into baculovirus expression vector pFASTHTA. The protein was expressed by infecting SF9 cells with high titer viral stocks for 48 hours. Cells were harvested and lysed in 30 mM Tris pH 7.4, 150 mM NaCl, 3 mM KCl, 10% glycerol, 1 mM PMSF, 2 mM TCEP, 1 mM ADP, 20 mM Imidazole. The supernatant was loaded to Ni-NTA Column (QIAGEN, 1018244). Then the proteins were gradient washed using the same buffer with 50 mM, 100 mM imidazole, then the ABL protein was eluted with Elution buffer (20 mM Tris, 500 mM NaCl, 1% glycerol, 1 mM TCEP, 0.5 mM ADP, 300 mM Imidazole, pH 8.0). The eluted protein was loaded on desalt column PD-10(GE) to change the buffer to 20 mM Tris, 500 mM NaCl, 1% glycerol, 2 mM TCEP, pH 8.0. The protein was concentrated to 1 mg/ml and aliquots were frozen and stored at −80 °C.
The fluorescence resonance energy transfer-based Z′-LYTE kinase assay (Invitrogen, USA) was used to evaluate the IC50 value of CHMFL-074 for inhibition of ABL and KIT kinase. […] After 1 hour incubation, the reaction was developed and terminated, and the fluorescence measured with an automated plate reader (SpectraMax I3, USA). […]

ABL1-nonphosphorylated = target: T6, ABL1-nonphosphorylated (Homo sapiens, UniProt P00519); assay: KinomeScan profiling; assay type: binding; details: 1 µM CHMFL-074; read-out: % Control
T6 construct: purchased DiscoveRx (KinomeScan service)

[3] = target: T7, ABL1(Y253F)-phosphorylated (Homo sapiens, UniProt P00519, Y253F); assay: KinomeScan profiling; assay type: binding; details: 1 µM CHMFL-074; read-out: % Control
T7 construct: purchased DiscoveRx (KinomeScan service)

MEG-01 = assay: Anti-proliferation, intact cancer cell lines; assay type: cell-based; details: Homo sapiens, MEG-01, 72 h
Experimental: (§2) The K562 (CML), KU812 (CML), MEG-01 (CML), MV4-11 (AML), MOLM14 (AML), U937 (AML), REC-1 (Human B-cell lymphoma cell), HL-60 (Human promyelocytic leukemia cells), MEC-1(CLL), CHL (Hamster lung cell), CHO (Hamster ovary cell) cell lines were obtained from American Type Culture Collection (Manassas, VA). All the cells were grown in a humidified incubator (Thermo, USA) at 37°C under 5% CO2. CHO cells were maintained in DMEM supplemented with 10% FBS, 1% penicillin/strepto-mycin. MV4-11 (AML) were grown in IMDM supplemented with 10% FBS, 1% penicillin/streptomycin. […] For suspension cells, cells were collected by spinning down at 800 rpm/min for 5 min before use.
(§3) A density of 1 × 10^4 to 2.5 × 10^4 cells/mL cells were mixed with various concentrations of compounds then 100 μL suspension was added to each well and incubated for 72 hours. Cell viability was determined using the CellTiter-Glo assay (Promega, USA) or CCK-8 assay (Beboy, China). Both assays were performed according to the manufacturer instructions. For CellTiter-Glo assay, luminescence was determined in a multi-label reader (Envision, PerkinElmer, USA). […] Data were normalized to control group (DMSO). GI50 were calculated using Prism 6.0 (GraphPad Software, San Diego, CA).

KU812 = assay: Anti-proliferation, intact cancer cell lines; assay type: cell-based; details: Homo sapiens; KU812 (CML), 72 hours
Experimental: as §2, §3

HL-60 = assay: Anti-proliferation, intact cancer cell lines; assay type: cell-based; details: Homo sapiens, HL-60, 72 h
Experimental: as §2, §3

MEC-1 = assay: Anti-proliferation, intact cancer cell lines; assay type: cell-based; details: Homo sapiens, MEC1, 72 h
Experimental: as §2, §3

REC-1 = assay: Anti-proliferation, intact cancer cell lines; assay type: cell-based; details: Homo sapiens, Rec1, 72 h
Experimental: as §2, §3

U937 = assay: Anti-proliferation, intact cancer cell lines; assay type: cell-based; details: Homo sapiens, U-937, 72 h
Experimental: as §2, §3

K562 = assay: Anti-proliferation, intact cancer cell lines; assay type: cell-based; details: Homo sapiens; K562 (CML), 72 hours
Experimental: as §2, §3

[4] = target: T8, ABL1(H396P)-nonphosphorylated (Homo sapiens, UniProt P00519, H396P); assay: KinomeScan profiling; assay type: binding; details: 1 µM CHMFL-074; read-out: % Control
T8 construct: purchased DiscoveRx (KinomeScan service)

T2 sequence (Q08345 19-913): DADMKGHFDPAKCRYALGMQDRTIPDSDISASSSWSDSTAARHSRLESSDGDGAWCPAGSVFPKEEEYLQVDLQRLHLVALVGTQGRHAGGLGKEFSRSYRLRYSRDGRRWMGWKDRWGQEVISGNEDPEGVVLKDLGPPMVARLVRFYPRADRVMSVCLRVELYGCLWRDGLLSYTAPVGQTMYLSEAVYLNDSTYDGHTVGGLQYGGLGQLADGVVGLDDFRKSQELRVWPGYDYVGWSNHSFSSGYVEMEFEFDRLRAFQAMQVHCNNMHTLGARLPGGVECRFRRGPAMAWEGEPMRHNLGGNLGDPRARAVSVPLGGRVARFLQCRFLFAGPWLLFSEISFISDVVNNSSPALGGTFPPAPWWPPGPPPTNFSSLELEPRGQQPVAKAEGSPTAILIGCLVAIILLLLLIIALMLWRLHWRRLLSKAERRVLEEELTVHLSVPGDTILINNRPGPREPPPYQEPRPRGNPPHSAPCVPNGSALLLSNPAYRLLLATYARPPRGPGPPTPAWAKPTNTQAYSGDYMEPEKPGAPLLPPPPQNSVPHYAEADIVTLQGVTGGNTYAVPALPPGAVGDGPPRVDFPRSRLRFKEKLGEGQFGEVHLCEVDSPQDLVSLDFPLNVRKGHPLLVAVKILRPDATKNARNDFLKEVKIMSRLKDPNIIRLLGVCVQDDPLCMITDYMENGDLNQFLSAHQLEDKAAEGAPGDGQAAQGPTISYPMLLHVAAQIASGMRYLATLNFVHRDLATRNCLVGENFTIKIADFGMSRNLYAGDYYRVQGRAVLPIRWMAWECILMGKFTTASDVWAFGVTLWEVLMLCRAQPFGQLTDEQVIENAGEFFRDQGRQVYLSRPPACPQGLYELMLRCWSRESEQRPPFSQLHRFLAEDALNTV
PDGFRβ, sequence (P09619 33-1106): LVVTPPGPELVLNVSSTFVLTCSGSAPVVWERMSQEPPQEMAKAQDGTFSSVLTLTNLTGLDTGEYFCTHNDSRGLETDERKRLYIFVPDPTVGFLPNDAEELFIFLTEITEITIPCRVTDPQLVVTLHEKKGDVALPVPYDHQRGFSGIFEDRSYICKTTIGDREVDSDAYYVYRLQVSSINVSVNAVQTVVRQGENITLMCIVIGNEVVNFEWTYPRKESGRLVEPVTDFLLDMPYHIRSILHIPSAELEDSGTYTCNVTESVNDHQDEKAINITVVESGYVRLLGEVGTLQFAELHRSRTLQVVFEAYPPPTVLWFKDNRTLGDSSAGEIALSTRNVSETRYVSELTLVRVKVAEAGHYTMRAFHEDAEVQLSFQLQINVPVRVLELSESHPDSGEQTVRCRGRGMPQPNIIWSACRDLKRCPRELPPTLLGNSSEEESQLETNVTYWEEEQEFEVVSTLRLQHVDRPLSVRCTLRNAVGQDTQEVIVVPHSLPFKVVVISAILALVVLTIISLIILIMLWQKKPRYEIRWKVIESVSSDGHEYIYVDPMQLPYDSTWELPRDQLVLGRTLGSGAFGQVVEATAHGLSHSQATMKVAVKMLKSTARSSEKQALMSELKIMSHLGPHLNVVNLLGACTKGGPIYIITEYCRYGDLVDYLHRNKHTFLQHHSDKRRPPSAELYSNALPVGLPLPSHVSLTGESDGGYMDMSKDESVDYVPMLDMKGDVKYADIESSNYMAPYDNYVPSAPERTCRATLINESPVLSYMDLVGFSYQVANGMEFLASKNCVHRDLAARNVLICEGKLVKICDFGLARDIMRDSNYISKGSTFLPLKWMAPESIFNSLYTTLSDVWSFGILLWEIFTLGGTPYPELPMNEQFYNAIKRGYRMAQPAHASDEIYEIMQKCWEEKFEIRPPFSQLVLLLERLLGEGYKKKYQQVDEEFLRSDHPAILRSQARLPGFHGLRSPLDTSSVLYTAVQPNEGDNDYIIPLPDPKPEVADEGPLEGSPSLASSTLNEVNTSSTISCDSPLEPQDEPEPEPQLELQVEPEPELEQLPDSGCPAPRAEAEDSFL
T4 sequence (P42684 whole entry): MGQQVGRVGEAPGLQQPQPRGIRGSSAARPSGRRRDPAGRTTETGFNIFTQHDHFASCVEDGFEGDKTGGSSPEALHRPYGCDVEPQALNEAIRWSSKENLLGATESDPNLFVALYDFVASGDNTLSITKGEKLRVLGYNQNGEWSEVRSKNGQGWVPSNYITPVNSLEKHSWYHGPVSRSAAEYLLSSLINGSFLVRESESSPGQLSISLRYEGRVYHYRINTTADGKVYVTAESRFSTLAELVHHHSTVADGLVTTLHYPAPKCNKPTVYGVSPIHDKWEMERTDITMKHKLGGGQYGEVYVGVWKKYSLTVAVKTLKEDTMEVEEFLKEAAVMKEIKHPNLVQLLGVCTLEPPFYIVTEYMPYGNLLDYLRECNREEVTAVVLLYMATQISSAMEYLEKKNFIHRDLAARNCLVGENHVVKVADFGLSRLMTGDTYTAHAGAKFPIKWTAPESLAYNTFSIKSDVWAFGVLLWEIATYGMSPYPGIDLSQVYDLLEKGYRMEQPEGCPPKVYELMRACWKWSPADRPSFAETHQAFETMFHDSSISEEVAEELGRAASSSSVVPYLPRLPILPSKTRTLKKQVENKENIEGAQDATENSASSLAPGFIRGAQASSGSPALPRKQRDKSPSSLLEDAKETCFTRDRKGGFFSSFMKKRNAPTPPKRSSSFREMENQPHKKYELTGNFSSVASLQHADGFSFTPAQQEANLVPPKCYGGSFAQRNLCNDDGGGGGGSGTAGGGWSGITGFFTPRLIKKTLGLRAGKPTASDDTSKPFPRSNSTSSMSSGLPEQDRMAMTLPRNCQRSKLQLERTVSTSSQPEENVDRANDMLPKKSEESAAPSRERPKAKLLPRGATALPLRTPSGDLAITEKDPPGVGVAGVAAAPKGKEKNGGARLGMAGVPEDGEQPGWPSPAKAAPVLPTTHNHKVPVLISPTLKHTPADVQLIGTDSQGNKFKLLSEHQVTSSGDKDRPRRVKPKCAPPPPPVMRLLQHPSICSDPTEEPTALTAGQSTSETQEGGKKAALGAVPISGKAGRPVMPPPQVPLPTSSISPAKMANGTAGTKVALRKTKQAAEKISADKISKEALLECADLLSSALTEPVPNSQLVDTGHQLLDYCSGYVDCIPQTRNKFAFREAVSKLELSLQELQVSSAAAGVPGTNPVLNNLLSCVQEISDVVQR
PDGFRα, sequence (P16234 24-1089): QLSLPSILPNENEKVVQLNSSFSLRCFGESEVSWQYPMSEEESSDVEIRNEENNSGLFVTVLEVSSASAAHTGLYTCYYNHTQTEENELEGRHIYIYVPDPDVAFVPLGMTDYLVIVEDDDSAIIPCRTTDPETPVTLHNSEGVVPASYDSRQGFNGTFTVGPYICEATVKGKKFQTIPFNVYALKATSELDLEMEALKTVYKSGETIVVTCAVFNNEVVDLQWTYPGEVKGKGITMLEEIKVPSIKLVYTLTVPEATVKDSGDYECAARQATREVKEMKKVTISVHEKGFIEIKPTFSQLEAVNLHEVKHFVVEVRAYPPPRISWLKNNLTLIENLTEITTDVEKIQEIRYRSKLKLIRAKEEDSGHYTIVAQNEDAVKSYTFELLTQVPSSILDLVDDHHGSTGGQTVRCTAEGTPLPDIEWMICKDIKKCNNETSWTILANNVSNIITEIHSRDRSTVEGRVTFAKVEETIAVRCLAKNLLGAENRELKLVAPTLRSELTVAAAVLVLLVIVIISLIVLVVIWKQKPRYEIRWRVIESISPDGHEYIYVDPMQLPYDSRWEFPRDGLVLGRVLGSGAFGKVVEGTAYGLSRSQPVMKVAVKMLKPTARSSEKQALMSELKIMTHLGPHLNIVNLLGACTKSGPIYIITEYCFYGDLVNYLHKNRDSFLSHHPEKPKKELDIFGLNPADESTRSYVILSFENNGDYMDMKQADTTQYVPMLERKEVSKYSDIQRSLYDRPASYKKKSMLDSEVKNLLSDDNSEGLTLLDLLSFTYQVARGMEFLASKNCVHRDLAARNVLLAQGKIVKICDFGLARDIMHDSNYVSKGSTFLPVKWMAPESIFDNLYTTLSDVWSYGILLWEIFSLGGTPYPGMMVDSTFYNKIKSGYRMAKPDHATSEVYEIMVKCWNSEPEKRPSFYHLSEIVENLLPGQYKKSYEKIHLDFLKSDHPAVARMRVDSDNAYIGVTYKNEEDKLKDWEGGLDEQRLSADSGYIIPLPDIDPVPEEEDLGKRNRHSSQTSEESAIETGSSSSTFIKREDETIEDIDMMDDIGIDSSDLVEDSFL

In the case of Cc1ccc(NC(=O)c2ccc(CN3CCN(C)CC3)c(C(F)(F)F)c2)cc1OC1CCN(C(=O)c2cccnc2)CC1 [CHMFL-074], the IC50 (PDGFRα) is reported as 71 nM, the IC50 (PDGFRβ) is reported as 88 nM and the remaining binding at 1 µM [1] is reported as 1%. For the same compound, the remaining binding at 1 µM (DDR1) was < 1%, the remaining binding at 1 µM [2] was 0.4% and the remaining binding at 1 µM (ABL2) was 0.8%. For the same compound, the IC50 (ABL1 kinase) was 25 nM, the remaining binding at 1 µM (ABL1-nonphosphorylated) was 0.25% and the remaining binding at 1 µM [3] was 0.3%. For the same compound, the GI50 (MEG-01) was 18 nM, the GI50 (KU812) was 57 nM and the GI50 (HL-60) was > 10000 nM. For the same compound, the GI50 (MEC-1) was > 10000 nM, the GI50 (REC-1) was > 10000 nM and the GI50 (U937) was > 10000 nM. It also gave a GI50 (K562) of 56 nM and a remaining binding at 1 µM [4] of 0.15%.
